The source made the active and inactive calls. The rule behind the calls is not given here.
How the values were obtained:
[1] = target: Glutamate receptor ionotropic, NMDA 2B (Homo sapiens, UniProt Q05586+Q13224); experiment: Displacement of [3H]-Ro256981 from human NR2B receptor
[2] = Antagonist activity at human NR1-NR2A receptor by FLIPR-based Ca2+ flux assay
[3] = Inhibition of alpha1 adrenergic receptor at 10 uM
Homo sapiens = species: Homo sapiens; experiment: Selectivity ratio of human NR2B receptor over human ERG
Cytochrome P450 3A4 = Cytochrome P450 3A4 (Homo sapiens, UniProt P08684); experiment: Inhibition of CYP3A4; type: ADME
Chain of Cytochrome P450 3A4 (P08684 whole entry): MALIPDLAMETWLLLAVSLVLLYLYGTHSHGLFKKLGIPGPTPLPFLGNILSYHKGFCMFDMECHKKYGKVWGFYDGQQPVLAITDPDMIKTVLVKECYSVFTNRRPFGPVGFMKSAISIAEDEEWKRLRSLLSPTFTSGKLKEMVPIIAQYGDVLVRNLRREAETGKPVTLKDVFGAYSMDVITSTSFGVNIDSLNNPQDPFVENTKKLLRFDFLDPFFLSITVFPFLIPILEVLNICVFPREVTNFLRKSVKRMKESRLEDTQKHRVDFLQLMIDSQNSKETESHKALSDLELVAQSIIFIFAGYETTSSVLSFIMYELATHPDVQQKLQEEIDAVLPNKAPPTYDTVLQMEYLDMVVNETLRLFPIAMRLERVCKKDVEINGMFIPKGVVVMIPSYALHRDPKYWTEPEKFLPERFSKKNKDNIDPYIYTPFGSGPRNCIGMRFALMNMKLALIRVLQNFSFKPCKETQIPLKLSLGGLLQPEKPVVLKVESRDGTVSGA

Cytochrome P450 1A2 = target: T1, Cytochrome P450 1A2 (Homo sapiens, UniProt P05177); experiment: Inhibition of CYP1A2; type: ADME
T1 sequence (P05177 whole entry): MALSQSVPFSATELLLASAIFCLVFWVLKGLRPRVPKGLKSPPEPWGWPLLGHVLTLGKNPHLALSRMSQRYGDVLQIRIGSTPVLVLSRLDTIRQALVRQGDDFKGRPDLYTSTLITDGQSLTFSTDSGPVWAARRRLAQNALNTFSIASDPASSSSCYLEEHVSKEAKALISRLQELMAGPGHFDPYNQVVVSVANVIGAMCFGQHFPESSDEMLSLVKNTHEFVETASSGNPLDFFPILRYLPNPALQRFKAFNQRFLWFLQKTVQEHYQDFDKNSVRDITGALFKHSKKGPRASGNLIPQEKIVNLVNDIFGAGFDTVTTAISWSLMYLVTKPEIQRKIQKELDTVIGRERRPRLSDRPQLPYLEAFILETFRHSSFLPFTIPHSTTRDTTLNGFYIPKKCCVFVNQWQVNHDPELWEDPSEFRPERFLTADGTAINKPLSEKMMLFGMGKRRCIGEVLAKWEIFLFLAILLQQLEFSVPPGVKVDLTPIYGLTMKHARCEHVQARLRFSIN

Cytochrome P450 2C19 = Cytochrome P450 2C19 (Homo sapiens, UniProt P33261); experiment: Inhibition of CYP2C19; type: ADME
Chain of Cytochrome P450 2C19 (P33261 whole entry): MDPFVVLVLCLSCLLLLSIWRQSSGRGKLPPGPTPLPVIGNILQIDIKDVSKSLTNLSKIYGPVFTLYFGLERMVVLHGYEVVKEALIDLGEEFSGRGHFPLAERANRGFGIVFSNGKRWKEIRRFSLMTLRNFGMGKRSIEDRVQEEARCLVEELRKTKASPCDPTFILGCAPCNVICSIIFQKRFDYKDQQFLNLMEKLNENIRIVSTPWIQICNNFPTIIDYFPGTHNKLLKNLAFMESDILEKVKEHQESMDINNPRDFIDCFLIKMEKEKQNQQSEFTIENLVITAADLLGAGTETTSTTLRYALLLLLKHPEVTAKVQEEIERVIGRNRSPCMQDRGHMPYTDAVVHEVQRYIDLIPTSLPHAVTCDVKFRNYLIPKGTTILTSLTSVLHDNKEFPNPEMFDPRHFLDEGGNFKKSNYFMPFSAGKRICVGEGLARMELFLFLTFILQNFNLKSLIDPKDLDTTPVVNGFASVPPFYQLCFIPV

Liver microsomes = experiment: Intrinsic clearance in human liver microsomes; type: ADME, Microsome
Cytochrome P450 2C9 = Cytochrome P450 2C9 (Homo sapiens, UniProt P11712); experiment: Inhibition of CYP2C9; type: ADME
Chain of Cytochrome P450 2C9 (P11712 whole entry): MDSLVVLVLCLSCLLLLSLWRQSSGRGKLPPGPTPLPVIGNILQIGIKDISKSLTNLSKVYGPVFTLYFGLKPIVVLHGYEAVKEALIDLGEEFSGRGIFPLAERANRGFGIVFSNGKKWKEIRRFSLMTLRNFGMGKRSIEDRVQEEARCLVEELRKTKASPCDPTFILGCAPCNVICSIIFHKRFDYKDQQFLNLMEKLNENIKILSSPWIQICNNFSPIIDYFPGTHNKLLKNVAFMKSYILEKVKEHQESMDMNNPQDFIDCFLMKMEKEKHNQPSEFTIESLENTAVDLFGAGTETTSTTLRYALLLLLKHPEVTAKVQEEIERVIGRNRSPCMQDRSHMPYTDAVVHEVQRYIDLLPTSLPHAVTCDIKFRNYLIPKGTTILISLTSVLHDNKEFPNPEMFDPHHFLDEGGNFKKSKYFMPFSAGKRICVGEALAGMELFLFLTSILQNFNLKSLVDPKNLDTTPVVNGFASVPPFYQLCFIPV

Cytochrome P450 2D6 = Cytochrome P450 2D6 (Homo sapiens, UniProt P10635); experiment: Inhibition of CYP2D6; type: ADME
Chain of Cytochrome P450 2D6 (P10635 whole entry): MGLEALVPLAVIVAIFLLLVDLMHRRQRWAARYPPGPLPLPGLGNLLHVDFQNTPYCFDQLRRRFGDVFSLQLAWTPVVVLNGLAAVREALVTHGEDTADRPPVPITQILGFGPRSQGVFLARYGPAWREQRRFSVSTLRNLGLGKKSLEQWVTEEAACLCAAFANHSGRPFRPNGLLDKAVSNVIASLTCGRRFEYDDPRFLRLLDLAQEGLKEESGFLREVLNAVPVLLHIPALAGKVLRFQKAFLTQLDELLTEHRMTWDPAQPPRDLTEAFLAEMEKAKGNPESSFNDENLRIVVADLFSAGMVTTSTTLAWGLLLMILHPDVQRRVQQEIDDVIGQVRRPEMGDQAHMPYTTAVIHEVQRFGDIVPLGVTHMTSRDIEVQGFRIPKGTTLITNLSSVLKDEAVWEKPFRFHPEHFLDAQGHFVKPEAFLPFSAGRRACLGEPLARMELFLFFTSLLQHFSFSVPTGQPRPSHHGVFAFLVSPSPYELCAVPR

[4] = target: T2, Glutamate NMDA receptor; GRIN1/GRIN2B (Homo sapiens) (UniProt Q05586+Q13224); experiment: Reversible inhibition of human NR1-NR2B receptor expressed in HEK293T cells assessed as inhibition of glycine-induced response by whole cell voltage clamp electrophysiology assay; type: cell-based; conditions: HEK-293T
[5] = target: T2, Glutamate NMDA receptor; GRIN1/GRIN2B (Homo sapiens); experiment: Reversible inhibition of human NR1-NR2B receptor expressed in HEK293T cells assessed as inhibition of glutamate-induced response by whole cell voltage clamp electrophysiology assay; type: cell-based; conditions: HEK-293T
[6] = Terminal half life in rat at 3 mg/kg, sc; type: ADME, organism-based; set-up: dose 3 mg/kg, route subcutaneous; conditions: in vivo, read-out: beta t1/2 (converted)
Blood = experiment: Drug uptake in rat blood at 3 mg/kg, sc; type: ADME, organism-based; set-up: dose 3 mg/kg, route subcutaneous; conditions: in vivo, read-out: Drug uptake
[7] = Ratio of drug level in brain to blood in rat at 3 mg/kg, sc; type: ADME, organism-based; set-up: dose 3 mg/kg, route subcutaneous
[8] = Tmax in rat at 3 mg/kg, sc; type: ADME, organism-based; set-up: dose 3 mg/kg, route subcutaneous; conditions: in vivo

Compound | IC50 [1] | IC50 [2] | inhibition [3] | Selectivity ratio (Homo sapiens) | also measured
Oc1ccc2nc(-c3ccccc3)[nH]c2c1CNC1CCCC1 | 0.0316 µM | > 50.1 µM | – | – | –
CN1CCN(Cc2c(O)ccc3nc(-c4ccccc4)[nH]c23)CC1 | 0.398 µM | > 50.1 µM | – | – | –
Oc1ccc2[nH]c(-c3ccccc3)nc2c1CN1CCCCCC1 | 0.00794 µM | > 50.1 µM | < 50% | > 100 | –
Fc1ccc2nc(-c3ccccc3)[nH]c2c1CN1CCCC1 | – | – | – | – | IC50 (Cytochrome P450 3A4): > 30 µM; IC50 (Cytochrome P450 1A2): 16 µM; IC50 (Cytochrome P450 2C19): > 30 µM; CLH (Liver microsomes): < 0.5 mL/min/g; IC50 (Cytochrome P450 2C9): > 30 µM; IC50 (Cytochrome P450 2D6): 5 µM
Fc1ccc2[nH]c(-c3ccccc3)nc2c1CN1CCCC1 | – | – | < 50% | – | inhibition [4]: Active; inhibition [5]: Active
Cc1ccc(-c2nc3c(CNC4CC4)c(O)ccc3[nH]2)cc1 | 0.0398 µM | > 50.1 µM | < 50% | > 100 | –
Fc1ccc2nc(-c3ccccc3)[nH]c2c1CN1CCCCC1 | 0.0794 µM | > 50.1 µM | – | – | –
Oc1ccc2[nH]c(-c3ccccc3)nc2c1CN1CCOCC1 | – | – | < 50% | – | –
CCCNCc1c(O)ccc2[nH]c(-c3ccccc3)nc12 | – | – | < 50% | – | –
Oc1ccc2[nH]c(-c3ccccc3)nc2c1CN1CCCCC1 | – | – | < 50% | – | IC50 (Cytochrome P450 3A4): > 30 µM; IC50 (Cytochrome P450 1A2): 3 µM; IC50 (Cytochrome P450 2C19): > 30 µM; half-life [6]: 66 min; CLH (Liver microsomes): 3.9 mL/min/g; IC50 (Cytochrome P450 2C9): > 30 µM; concentration (Blood): 600 nM; IC50 (Cytochrome P450 2D6): 6 µM; Kp [7]: 2.7; Tmax [8]: 48 min
CN(C)Cc1c(O)ccc2[nH]c(-c3ccccc3)nc12 | – | – | < 50% | – | –
Fc1ccc2[nH]c(-c3ccccc3)nc2c1CN1CCOCC1 | – | – | < 50% | > 100 | inhibition [4]: Active; inhibition [5]: Active
c1ccc(-c2nc3c(CN4CCCCC4)cccc3[nH]2)cc1 | – | – | < 50% | – | inhibition [4]: Active; inhibition [5]: Active
Oc1ccc2[nH]c(-c3ccccc3)nc2c1CN1CCC(c2ccccc2)CC1 | 0.0794 µM | > 50.1 µM | – | > 100 | –
Oc1ccc2nc(-c3cccc(F)c3F)[nH]c2c1CN1CCCC1 | 0.0126 µM | > 50.1 µM | – | – | –
CC(C)NCc1c(F)ccc2nc(-c3ccccc3)[nH]c12 | 0.794 µM | > 50.1 µM | – | – | –
Oc1ccc2[nH]c(-c3cccc(F)c3F)nc2c1CNCc1ccco1 | – | – | < 50% | > 100 | –
CN1CCN(Cc2c(O)ccc3[nH]c(-c4ccccc4)nc23)CC1 | – | – | < 50% | > 100 | –

Compound | IC50 [1] | IC50 [2] | inhibition [3] | Selectivity ratio (Homo sapiens) | also measured
Oc1ccc2[nH]c(Cc3ccccc3)nc2c1CN1CCCC1 | – | – | < 50% | – | –
Oc1ccc2nc(-c3cccc(F)c3F)[nH]c2c1CNCc1ccco1 | 0.794 µM | > 50.1 µM | – | – | –
CC(C)NCc1c(F)ccc2[nH]c(-c3ccccc3)nc12 | – | – | < 50% | > 100 | inhibition [4]: Active; inhibition [5]: Active
Fc1ccc2[nH]c(-c3ccccc3)nc2c1CN1CCCCCC1 | 0.2 µM | > 50.1 µM | < 50% | > 100 | inhibition [4]: Active; inhibition [5]: Active
O=C(c1cccc2[nH]c(-c3ccccc3)nc12)N1CCCCC1 | – | – | < 50% | > 100 | inhibition [4]: Active; inhibition [5]: Active
Fc1ccc2nc(-c3ccccc3)[nH]c2c1CN1CCOCC1 | 2.51 µM | > 50.1 µM | – | – | –
CCC1CCCCN1Cc1c(F)ccc2nc(-c3ccccc3)[nH]c12 (stereo not drawn) | 1 µM | > 50.1 µM | – | – | –
Oc1ccc2[nH]c(-c3cccc(F)c3F)nc2c1CN1CCCC1 | – | – | < 50% | > 100 | –
O=C(c1cccc2nc(-c3ccccc3)[nH]c12)N1CCCCC1 | > 10 µM | > 50.1 µM | – | – | –
Oc1ccc2nc(-c3ccccc3)[nH]c2c1CN1CCCC1 | 0.00794 µM | > 50.1 µM | – | – | –
Oc1ccc2[nH]c(-c3cccc(F)c3F)nc2c1CNCc1cccs1 | – | – | < 50% | – | –
Fc1ccc2[nH]c(-c3ccccc3)nc2c1CN1CCCCC1 | – | – | < 50% | > 100 | inhibition [4]: Active; inhibition [5]: Active
c1ccc(-c2nc3cccc(CN4CCCCC4)c3[nH]2)cc1 | – | – | – | – | IC50 (Cytochrome P450 3A4): > 50 µM; IC50 (Cytochrome P450 1A2): 7 µM; IC50 (Cytochrome P450 2C19): > 50 µM; CLH (Liver microsomes): 3.6 mL/min/g; IC50 (Cytochrome P450 2C9): > 50 µM; IC50 (Cytochrome P450 2D6): 5 µM
Oc1ccc2[nH]c(-c3ccccc3)nc2c1CNC1CCCC1 | – | – | < 50% | > 100 | –
CCC1CCCCN1Cc1c(F)ccc2[nH]c(-c3ccccc3)nc12 (stereo not drawn) | – | – | < 50% | > 100 | inhibition [4]: Active; inhibition [5]: Active
Oc1ccc2[nH]cnc2c1CN1CCCCC1 | – | – | < 50% | – | –
Cc1cccc2[nH]c(-c3ccccc3)nc12 | > 10 µM | > 50.1 µM | < 50% | > 100 | inhibition [4]: Active; inhibition [5]: Active
Oc1ccc2[nH]c(-c3ccccc3)nc2c1CN1CCCC1 | – | – | < 50% | > 100 | –

Reference: ChEMBL document CHEMBL2010727, “A novel series of benzimidazole NR2B-selective NMDA receptor antagonists” (Bioorg Med Chem Lett, 2012)
